The source of these data is PubChem BioAssay (NCI).

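Test compounds were applied to cells in 96-well plates for 48 hours at 5 doses. Here, GI50 denotes the concentration required for 50% inhibition of growth. TGI: concentration producing complete growth inhibition.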

Among the test systems are IGROV1 ovarian; NCI-H522 lung; EKVX NSCLC; DU-145 prostate; SN12C renal; UACC-257 melanoma; SF-539 CNS; SK-OV-3 ovarian.
What all share (assay): growth of human tumour cells (NCI), 48 h

As for `NC(Cc1ccc(S(=O)(=O)O)cc1)C(=O)NC(Cc1ccc(S(=O)(=O)O)cc1)C(=O)O` (stereo not drawn), the TGI with IGROV1 ovarian, in the assay on NCI-H522 lung, in the assay with EKVX NSCLC, in the assay with DU-145 prostate, in the assay with SN12C renal and in the assay with UACC-257 melanoma was more than 100 µM each time. In the assay with SF-539 CNS, this compound displayed a TGI of more than 100 µM.
For the compound `CC(=O)Oc1ccc(/C=C/C(=O)O[C@@H](C(=O)O)[C@@H](OC(=O)/C=C/c2ccc(OC(C)=O)c(OC(C)=O)c2)C(=O)O)cc1OC(C)=O`, the TGI in the assay with IGROV1 ovarian, in the assay on NCI-H522 lung, with EKVX NSCLC, with DU-145 prostate, with SN12C renal and with UACC-257 melanoma was more than 100 µM each time. Moreover, the TGI in the assay with SK-OV-3 ovarian was more than 100 µM.
With `CC(C)(C)OC(=O)NCCCCC(NC(=O)c1ccccc1)C(N)=O` (stereo not drawn), the TGI in the assay with NCI-H522 lung, in the assay with EKVX NSCLC, with DU-145 prostate, with SN12C renal, in the assay on UACC-257 melanoma and with SF-539 CNS was more than 100 µM throughout. Moreover, the TGI in the assay with SK-OV-3 ovarian was more than 100 µM.
With `Cc1nc2c(=S)n(C)ncc2[nH]1`, the TGI with IGROV1 ovarian, with NCI-H522 lung, in the assay with EKVX NSCLC, in the assay with SN12C renal, in the assay on UACC-257 melanoma and with SF-539 CNS was more than 100 µM throughout. The compound also gave a TGI in the assay on SK-OV-3 ovarian of more than 100 µM.
On to `CCOC(=O)C1=COC(C)(CCc2ccccc2)CC1=O` (stereo not drawn), for which the TGI was 89.8 µM in the assay on NCI-H522 lung; more than 100 µM in the assay on EKVX NSCLC; more than 100 µM with DU-145 prostate; more than 100 µM in the assay with SN12C renal; more than 100 µM in the assay with UACC-257 melanoma; more than 100 µM in the assay on SF-539 CNS. In addition, the TGI with SK-OV-3 ovarian is more than 100 µM.
Take `Cc1nc2ccccc2c(/C=C/c2ccc(Cl)cc2)c1C(=O)/C=C/c1ccc(Cl)cc1`: the GI50 in the assay on NCI-H522 lung is 1.25 µM; in the assay on SF-539 CNS, 1.71 µM. In addition, the TGI in the assay on NCI-H522 lung stood at 4.77 µM; with SF-539 CNS, 3.14 µM.
Take `N#C/C(=C/NC(=S)c1ccncc1)C(N)=O`: the TGI in the assay on IGROV1 ovarian, in the assay on EKVX NSCLC, in the assay on DU-145 prostate, in the assay with SN12C renal, in the assay with UACC-257 melanoma and in the assay with SF-539 CNS was more than 100 µM throughout. In the assay with SK-OV-3 ovarian, this compound displayed a TGI of more than 100 µM.
`COc1ccc(/C=N/n2cnc3[nH]c(C)c(Cc4ccccc4)c3c2=N)cc1`: the TGI in the assay with IGROV1 ovarian, in the assay with NCI-H522 lung, in the assay on EKVX NSCLC, in the assay on DU-145 prostate, in the assay with SN12C renal and in the assay with UACC-257 melanoma was more than 100 µM throughout. In addition, the TGI in the assay with SK-OV-3 ovarian was more than 100 µM.
On to `CCN(CC)c1ccc(/C=C/C=C2C(=O)NC(=S)NC2=O)cc1`, for which the TGI in the assay on IGROV1 ovarian was more than 100 µM; in the assay on EKVX NSCLC, more than 100 µM; with DU-145 prostate, more than 100 µM; with SN12C renal it was more than 100 µM; in the assay on UACC-257 melanoma, more than 100 µM; with SF-539 CNS, 36.6 µM. Also, the TGI with SK-OV-3 ovarian was more than 100 µM.
As to `CN(C)c1cccc(NC2=NCCO2)c1`, the TGI in the assay with IGROV1 ovarian, in the assay with NCI-H522 lung, in the assay on EKVX NSCLC, with DU-145 prostate, with SN12C renal and in the assay on UACC-257 melanoma was more than 100 µM each time. The compound further came in with a TGI in the assay with SF-539 CNS of more than 100 µM.
In the case of `COc1ccc(/C=C/C2=NN(c3cccc(S(=O)(=O)O)c3)C3(C2)SCC(=O)N3c2nc3ccccc3s2)cc1` (stereo not drawn), the TGI in the assay with IGROV1 ovarian, in the assay with NCI-H522 lung, in the assay with EKVX NSCLC, with DU-145 prostate, with SN12C renal and in the assay with UACC-257 melanoma was more than 100 µM each time. This compound also came in with a TGI in the assay on SF-539 CNS of more than 100 µM.
`CCN(CC)c1ccc2cc(C(=O)Nc3ccccn3)c(=N)oc2c1`: the TGI in the assay with IGROV1 ovarian, in the assay on EKVX NSCLC, in the assay on DU-145 prostate, in the assay on SN12C renal, in the assay with UACC-257 melanoma and with SF-539 CNS was more than 100 µM throughout. In the assay on SK-OV-3 ovarian, this compound gave a TGI of more than 100 µM.
Regarding `O=C(NC(=S)NC(=O)c1cc(O)c(O)c(O)c1)c1cc(O)c(O)c(O)c1`, the TGI in the assay with NCI-H522 lung is 70.3 µM; in the assay with DU-145 prostate it was 63.8 µM; in the assay with SN12C renal, 53.7 µM; in the assay with UACC-257 melanoma it was 44.8 µM; in the assay with SF-539 CNS, more than 100 µM; with SK-OV-3 ovarian, more than 100 µM.
`COc1ccc(C(C2=C(O)COC2=O)c2cc3c(cc2O)OCO3)cc1OC` (stereo not drawn): the TGI in the assay with IGROV1 ovarian, in the assay with EKVX NSCLC, with DU-145 prostate, in the assay with SN12C renal, with UACC-257 melanoma and in the assay on SF-539 CNS was more than 100 µM each time. For the same compound, in the assay with SK-OV-3 ovarian, the TGI was more than 100 µM.
`Cc1ccccc1NC(=O)Cc1csc2[n+]1C(=O)/C(=C/c1ccc([N+](=O)[O-])cc1)S2`: the TGI in the assay with IGROV1 ovarian, in the assay with EKVX NSCLC, in the assay on DU-145 prostate, in the assay on SN12C renal, in the assay on UACC-257 melanoma and with SF-539 CNS was more than 100 µM each time. The TGI in the assay with SK-OV-3 ovarian was more than 100 µM.
With `O=C(CCc1ccccc1)ON1C(=S)C(c2ccccc2)(c2ccccc2)N=C1Sc1ccccc1`, the TGI is 55.5 µM in the assay with IGROV1 ovarian; more than 100 µM in the assay on EKVX NSCLC; more than 100 µM in the assay with DU-145 prostate; more than 100 µM in the assay with SN12C renal; more than 100 µM with UACC-257 melanoma; more than 100 µM in the assay with SF-539 CNS. For the same compound, the TGI in the assay with SK-OV-3 ovarian was more than 100 µM.
On to `CC1C(c2ccc(Cl)cc2)c2cc3c(cc2OC1N1CCOCC1)OCO3` (stereo not drawn), for which the TGI in the assay with IGROV1 ovarian, in the assay with NCI-H522 lung, in the assay on EKVX NSCLC, in the assay on DU-145 prostate, in the assay with SN12C renal and in the assay on UACC-257 melanoma was more than 100 µM throughout. The same compound had a TGI in the assay on SF-539 CNS of more than 100 µM.
`CC(=O)N(O)c1ccc(-c2nc3ccccc3s2)cc1`: the TGI in the assay with IGROV1 ovarian was more than 100 µM; in the assay with NCI-H522 lung it was 97.2 µM; in the assay with DU-145 prostate, more than 100 µM; with SN12C renal it was more than 100 µM; in the assay on UACC-257 melanoma, more than 100 µM.
Take `O=c1cnn(CCOCP(=O)(O)O)c(=O)[nH]1`: the TGI in the assay with IGROV1 ovarian, in the assay with NCI-H522 lung, in the assay with EKVX NSCLC, with DU-145 prostate, in the assay with SN12C renal and in the assay with UACC-257 melanoma was more than 100 µM throughout. Moreover, the TGI in the assay on SF-539 CNS was more than 100 µM.
For the compound `COc1ccccc1C[C@@H]1OC2(C=CC(=O)C=C2)O[C@H]1Cc1ccccc1OC`, the TGI was 13.6 µM with IGROV1 ovarian; 13 µM with EKVX NSCLC; more than 50 µM in the assay on DU-145 prostate; 23.4 µM in the assay on SN12C renal; 16.1 µM in the assay with UACC-257 melanoma; 15.6 µM in the assay with SF-539 CNS. Also, the TGI in the assay with SK-OV-3 ovarian turned out to be 24.5 µM.
As to `O=C(CCc1ccccc1)On1c(-c2ccccc2)nc2ccccc2c1=S`, the TGI in the assay on IGROV1 ovarian is more than 100 µM; in the assay with EKVX NSCLC, 52.1 µM; in the assay with DU-145 prostate it was more than 100 µM; in the assay with SN12C renal, more than 100 µM; in the assay on UACC-257 melanoma it was more than 100 µM; in the assay on SF-539 CNS it was 20.7 µM. For the same compound, the TGI in the assay with SK-OV-3 ovarian was more than 100 µM.
Take `CCc1ccccc1NNc1cc(=O)[nH]c(=O)[nH]1`: the TGI in the assay with IGROV1 ovarian is 37.8 µM; with EKVX NSCLC, 33.9 µM; in the assay on DU-145 prostate, more than 100 µM; with SN12C renal it was 39 µM; in the assay on UACC-257 melanoma, 35.9 µM; in the assay with SF-539 CNS it was 52.2 µM. Besides, in the assay on SK-OV-3 ovarian, the TGI is 64.8 µM.
As for `CSc1c(C(=O)Nc2ccc(Cl)cc2)c(N)n(N)c(=O)c1C#N`, the TGI in the assay with NCI-H522 lung, in the assay with EKVX NSCLC, with DU-145 prostate, in the assay on SN12C renal, in the assay with UACC-257 melanoma and in the assay on SF-539 CNS was more than 100 µM in each case. The same compound had a TGI with SK-OV-3 ovarian of more than 100 µM.
For the compound `O=C(Nc1ccccc1)c1cc(S(=O)(=O)N2CCNNC2=O)c(S)cc1Cl`, the TGI in the assay with IGROV1 ovarian, in the assay with NCI-H522 lung, in the assay with EKVX NSCLC, in the assay with DU-145 prostate, in the assay on SN12C renal and in the assay with UACC-257 melanoma was more than 100 µM each time. In the assay on SF-539 CNS, the TGI is more than 100 µM.
As to `O=C(OCC(Cl)(Cl)Cl)O[C@@H]1CCCC1(c1ccccc1)c1ccccc1`, the TGI with IGROV1 ovarian, in the assay on NCI-H522 lung, in the assay with EKVX NSCLC, in the assay with DU-145 prostate, with SN12C renal and in the assay on UACC-257 melanoma was more than 100 µM in each case. The same compound registered a TGI with SK-OV-3 ovarian of more than 100 µM.
`N#C[C@H](c1nc2ccccc2s1)c1nc2ccccc2nc1Cl`: the TGI in the assay with IGROV1 ovarian is more than 100 µM; in the assay with NCI-H522 lung it was more than 100 µM; with EKVX NSCLC, more than 100 µM; in the assay on SN12C renal it was more than 100 µM; with UACC-257 melanoma it was 43.3 µM; in the assay with SF-539 CNS it was more than 100 µM. In the assay on SK-OV-3 ovarian, this compound had a TGI of 73 µM.
For `C[C@@H]1S[C@H](c2c(Cl)cccc2Cl)N2Cc3ccccc3N=C12`, the TGI in the assay with IGROV1 ovarian, with EKVX NSCLC, in the assay with DU-145 prostate, in the assay on SN12C renal, in the assay with UACC-257 melanoma and in the assay with SF-539 CNS was more than 100 µM throughout. Moreover, in the assay on SK-OV-3 ovarian, the TGI is more than 100 µM.
